Data from article PMC3914206.

How the values were obtained:
Type in all cases: binding
Parameters in all cases: KINOMEscan: ABL1(F317L)-phosphorylated / KINOMEscan: ABL1(H396P)-nonphosphorylated / KINOMEscan: ABL1(H396P)-phosphorylated / KINOMEscan: ABL1(M351T)-phosphorylated / KINOMEscan: ABL1(T315I)-phosphorylated / KINOMEscan: ABL1-nonphosphorylated / KINOMEscan: ABL1-phosphorylated / KINOMEscan: ACVR2A / KINOMEscan: ACVR2B / KINOMEscan: ADCK3 / KINOMEscan: ADCK4 / KINOMEscan: AKT1 / KINOMEscan: AKT3 / KINOMEscan: ALK / KINOMEscan: ARK5 / KINOMEscan: AURKA / KINOMEscan: AURKC / KINOMEscan: BIKE / KINOMEscan: BMPR1A / KINOMEscan: BMPR1B / KINOMEscan: BMX / KINOMEscan: BRK / KINOMEscan: BRSK1 / KINOMEscan: BRSK2 / KINOMEscan: CAMK1 / KINOMEscan: CAMK1D / KINOMEscan: CAMK1G / KINOMEscan: CAMK2A / KINOMEscan: CAMK2B / KINOMEscan: AAK1 / KINOMEscan: CAMK2D / KINOMEscan: CAMK2G / KINOMEscan: ABL1(F317I)-nonphosphorylated / KINOMEscan: ABL1(F317I)-phosphorylated / KINOMEscan: ABL1(F317L)-nonphosphorylated: unit: % Ctrl
Details in all cases: Compound Concentration 10 µM
panel of 442 kinases [1] = biological target: T1, panel of 442 kinases (Homo sapiens, UniProt P42336, E545K)
T1 construct: purchased KINOMEscan
T1 sequence (P42336 whole entry E545K): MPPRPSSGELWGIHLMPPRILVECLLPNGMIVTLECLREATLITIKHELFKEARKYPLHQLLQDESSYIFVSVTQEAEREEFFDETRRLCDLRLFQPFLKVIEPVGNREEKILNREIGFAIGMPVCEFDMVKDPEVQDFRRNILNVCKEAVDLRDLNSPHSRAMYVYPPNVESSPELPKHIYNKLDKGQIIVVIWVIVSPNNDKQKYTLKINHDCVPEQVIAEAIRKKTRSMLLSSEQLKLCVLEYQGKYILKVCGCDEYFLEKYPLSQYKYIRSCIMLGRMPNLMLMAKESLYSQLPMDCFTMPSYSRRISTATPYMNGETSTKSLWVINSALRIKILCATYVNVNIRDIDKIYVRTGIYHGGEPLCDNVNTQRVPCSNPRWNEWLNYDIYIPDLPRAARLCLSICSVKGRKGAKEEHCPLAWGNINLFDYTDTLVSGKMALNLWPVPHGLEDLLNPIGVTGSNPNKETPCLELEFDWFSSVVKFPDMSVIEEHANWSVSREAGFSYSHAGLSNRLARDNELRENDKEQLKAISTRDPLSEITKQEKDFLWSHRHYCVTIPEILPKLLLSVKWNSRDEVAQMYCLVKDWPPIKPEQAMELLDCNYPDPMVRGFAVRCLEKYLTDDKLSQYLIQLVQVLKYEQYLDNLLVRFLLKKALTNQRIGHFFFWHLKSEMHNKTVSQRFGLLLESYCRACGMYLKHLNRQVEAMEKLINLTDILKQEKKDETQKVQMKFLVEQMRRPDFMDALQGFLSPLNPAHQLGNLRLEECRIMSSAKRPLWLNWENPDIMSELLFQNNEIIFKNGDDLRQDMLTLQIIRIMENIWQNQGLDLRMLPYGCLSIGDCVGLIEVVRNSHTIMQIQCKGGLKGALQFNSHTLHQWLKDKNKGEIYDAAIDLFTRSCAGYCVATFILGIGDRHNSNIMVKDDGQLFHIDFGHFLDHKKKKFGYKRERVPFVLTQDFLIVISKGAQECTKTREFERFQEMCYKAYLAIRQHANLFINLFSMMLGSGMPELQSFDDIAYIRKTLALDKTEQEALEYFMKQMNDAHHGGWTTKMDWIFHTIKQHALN
Text: (§1) We assessed the selectivity of members of this scaffold using the KINOMEscan methodology across a near comprehensive panel of 442 kinases [[18,27]].

panel of 442 kinases [2] = biological target: T2, panel of 442 kinases (Homo sapiens, UniProt P51956)
T2 construct: purchased KINOMEscan
T2 sequence (P51956 1-506): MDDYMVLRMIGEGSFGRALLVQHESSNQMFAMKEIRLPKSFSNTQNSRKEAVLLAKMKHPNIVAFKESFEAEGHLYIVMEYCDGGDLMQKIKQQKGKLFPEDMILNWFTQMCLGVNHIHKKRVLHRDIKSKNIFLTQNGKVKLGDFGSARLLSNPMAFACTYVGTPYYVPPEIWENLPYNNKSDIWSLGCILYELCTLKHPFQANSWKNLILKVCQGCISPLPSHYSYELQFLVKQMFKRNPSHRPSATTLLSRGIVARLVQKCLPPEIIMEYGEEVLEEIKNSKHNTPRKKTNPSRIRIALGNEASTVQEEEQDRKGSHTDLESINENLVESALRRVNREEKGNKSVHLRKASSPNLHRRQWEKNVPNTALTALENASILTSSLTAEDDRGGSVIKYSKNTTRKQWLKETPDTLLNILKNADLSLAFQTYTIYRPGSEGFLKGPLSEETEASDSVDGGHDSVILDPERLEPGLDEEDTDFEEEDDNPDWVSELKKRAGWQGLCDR
Text: as §1

panel of 442 kinases [3] = biological target: T3, panel of 442 kinases (Homo sapiens, UniProt P00519)
T3 construct: purchased KINOMEscan
T3 sequence (P00519 whole entry): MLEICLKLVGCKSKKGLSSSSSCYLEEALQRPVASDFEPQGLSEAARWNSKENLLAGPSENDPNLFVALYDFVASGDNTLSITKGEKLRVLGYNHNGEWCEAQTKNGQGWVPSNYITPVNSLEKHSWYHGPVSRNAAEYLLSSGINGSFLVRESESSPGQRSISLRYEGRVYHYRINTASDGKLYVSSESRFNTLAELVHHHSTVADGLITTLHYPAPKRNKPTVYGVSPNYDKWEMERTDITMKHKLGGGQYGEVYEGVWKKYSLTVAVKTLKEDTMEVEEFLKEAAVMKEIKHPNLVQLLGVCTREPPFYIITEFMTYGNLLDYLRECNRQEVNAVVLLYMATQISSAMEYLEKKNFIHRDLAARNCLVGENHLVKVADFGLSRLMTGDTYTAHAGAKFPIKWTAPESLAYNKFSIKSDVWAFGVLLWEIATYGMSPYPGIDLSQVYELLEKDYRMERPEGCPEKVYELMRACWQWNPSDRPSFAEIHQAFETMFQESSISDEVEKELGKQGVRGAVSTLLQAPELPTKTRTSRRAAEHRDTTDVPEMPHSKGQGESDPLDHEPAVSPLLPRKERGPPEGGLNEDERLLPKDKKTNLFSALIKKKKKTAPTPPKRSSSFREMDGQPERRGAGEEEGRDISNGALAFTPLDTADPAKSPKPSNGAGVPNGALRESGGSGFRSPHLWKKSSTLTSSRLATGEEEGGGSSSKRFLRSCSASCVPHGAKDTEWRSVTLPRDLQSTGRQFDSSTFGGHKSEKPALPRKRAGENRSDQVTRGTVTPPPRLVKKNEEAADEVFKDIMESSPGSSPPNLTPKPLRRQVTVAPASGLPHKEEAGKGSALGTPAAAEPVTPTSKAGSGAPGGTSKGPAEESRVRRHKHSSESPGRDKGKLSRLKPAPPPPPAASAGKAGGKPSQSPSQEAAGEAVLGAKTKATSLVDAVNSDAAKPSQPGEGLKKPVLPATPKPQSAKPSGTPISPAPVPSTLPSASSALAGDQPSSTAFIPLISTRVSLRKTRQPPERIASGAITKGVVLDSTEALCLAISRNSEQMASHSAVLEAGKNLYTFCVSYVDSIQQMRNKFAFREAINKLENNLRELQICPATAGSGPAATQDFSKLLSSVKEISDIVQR
Text: as §1

Structure (SMILES)	KINOMEscan: PIK3CA(E545K) (panel of 442 kinases [1])	KINOMEscan: NEK3 (panel of 442 kinases [2])	KINOMEscan: ABL1-nonphosphorylated (panel of 442 kinases [3])	KINOMEscan: ABL1-phosphorylated (panel of 442 kinases [3])
COc1cc(C(=O)N2CCC(N3CCN(C)CC3)CC2)ccc1Nc1ncc2c(n1)N(C)c1ccccc1C(=O)N2C [15 (LRRK2-IN-1)]	100	100	100	82
COc1cc(C(=O)N2CCC(N3CCN(C)CC3)CC2)ccc1Nc1ncc2c(n1)N1CCc3cccc(c31)C(=O)N2C [Compound 24]			60	81
COc1cc(C(=O)N2CCC(N3CCN(C)CC3)CC2)ccc1Nc1ncc2c(n1)N(C1CCCC1)c1ccccc1C(=O)N2C [Compound 25, 11-cyclopentyl-2-((2-methoxy-4-(4-(4-methylpiperazin-1-yl)piperidine-1-carbonyl)phenyl)amino)-5-methyl-5H-benzo[e]pyrimido[5,4-b][1,4]diazepin-6(11H)-one]	100	100	90	100
CCOc1cc(C(=O)N2CCC(N3CCN(C)CC3)CC2)ccc1Nc1ncc2c(n1)N(C1CCCC1)c1ccccc1C(=O)N2C [Compound 26]	100	83	96	100
